In ChEMBL document CHEMBL4002542, “Rapid preparation of (3R,4S,5R) polyhydroxylated pyrrolidine-based libraries to discover a pharmacological chaperone for treatment of Fabry disease” (Eur J Med Chem, 2017):
Substitutions are numbered along the chain they refer to. Activity calls are given as the source filed them. No cut-off for these calls is given here.

Key:
[1] = biological target: T1, Alpha-mannosidase (Canavalia ensiformis) (UniProt C0HJB3); assay: Inhibition of jack bean alpha-mannosidase at 100 uM using p-nitrophenyl-glycopyranoside or 4-methylumbelliferyl-glycopyranoside as substrate by spectrophotometric method relative to control
T1 sequence (whole entry): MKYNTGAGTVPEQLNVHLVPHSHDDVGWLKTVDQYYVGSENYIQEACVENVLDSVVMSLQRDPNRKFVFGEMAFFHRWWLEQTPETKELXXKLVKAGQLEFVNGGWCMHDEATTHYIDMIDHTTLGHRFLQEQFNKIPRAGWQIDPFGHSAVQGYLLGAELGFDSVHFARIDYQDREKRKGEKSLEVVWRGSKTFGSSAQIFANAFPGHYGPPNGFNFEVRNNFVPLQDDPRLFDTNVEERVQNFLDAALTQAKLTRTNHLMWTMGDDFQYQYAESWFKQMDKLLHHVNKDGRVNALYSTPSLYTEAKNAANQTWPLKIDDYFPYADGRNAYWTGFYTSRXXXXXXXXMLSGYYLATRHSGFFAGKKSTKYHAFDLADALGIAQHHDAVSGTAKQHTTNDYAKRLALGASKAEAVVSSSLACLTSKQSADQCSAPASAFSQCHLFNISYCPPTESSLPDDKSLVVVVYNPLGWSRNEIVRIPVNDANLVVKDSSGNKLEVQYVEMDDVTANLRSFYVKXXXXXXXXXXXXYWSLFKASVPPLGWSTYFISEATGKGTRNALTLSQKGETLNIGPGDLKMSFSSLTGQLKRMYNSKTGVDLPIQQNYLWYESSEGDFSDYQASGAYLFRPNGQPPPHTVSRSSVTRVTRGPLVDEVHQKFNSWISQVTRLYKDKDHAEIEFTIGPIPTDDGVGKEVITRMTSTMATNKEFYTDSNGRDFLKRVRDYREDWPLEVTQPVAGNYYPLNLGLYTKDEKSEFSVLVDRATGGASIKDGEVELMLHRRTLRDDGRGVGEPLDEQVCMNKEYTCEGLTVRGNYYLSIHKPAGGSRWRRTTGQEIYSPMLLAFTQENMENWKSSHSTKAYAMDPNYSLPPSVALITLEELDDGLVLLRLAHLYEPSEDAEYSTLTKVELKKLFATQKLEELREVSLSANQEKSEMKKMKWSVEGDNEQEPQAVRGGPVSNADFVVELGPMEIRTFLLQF

[2] = system: T2, Alpha-galactosidase A (Homo sapiens), P06280 [Q279E]; assay: (§1) Chaperone activity assessed as enhancement of human alpha GAL-A Q279E mutant enzyme activity expressed in COS7 cells at 10 to 100 uM at pH 4.6 pretreated for 60 hrs followed by 4MU-alpha-galactopyranoside substrate addition in presence of N-acetylgalactosamine measured after 1 hr by fluorescence assay relative to control; type: cell-based
T2 sequence (whole entry): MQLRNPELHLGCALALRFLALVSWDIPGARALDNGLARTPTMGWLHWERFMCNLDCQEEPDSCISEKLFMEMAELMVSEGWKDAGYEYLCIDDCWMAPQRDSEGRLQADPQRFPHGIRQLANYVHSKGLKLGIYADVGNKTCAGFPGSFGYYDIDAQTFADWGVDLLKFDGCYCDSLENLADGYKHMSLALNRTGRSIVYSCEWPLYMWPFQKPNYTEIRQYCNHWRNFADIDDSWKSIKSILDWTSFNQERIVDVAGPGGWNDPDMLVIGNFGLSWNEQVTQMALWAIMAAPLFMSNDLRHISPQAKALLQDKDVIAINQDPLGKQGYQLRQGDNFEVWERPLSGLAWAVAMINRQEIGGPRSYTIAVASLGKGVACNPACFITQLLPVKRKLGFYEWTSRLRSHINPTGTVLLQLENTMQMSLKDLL

Alpha-galactosidase A = biological target: T3, Alpha-galactosidase A (Homo sapiens, UniProt P06280)
T3 sequence (P06280 whole entry): T2 sequence (whole entry) with E279Q
Description: Inhibition of recombinant human alpha GAL-A using 4-methylumbelliferyl alpha-D-galactopyranoside as substrate at pH 7 after 15 mins by fluorescence assay

Prunus dulcis = assay: Inhibition of almond beta-glucosidase at 100 uM using p-nitrophenyl-glycopyranoside or 4-methylumbelliferyl-glycopyranoside as substrate by spectrophotometric method relative to control
[3] = biological target: T4, Alpha-galactosidase A (Homo sapiens) (UniProt P06280); assay: Inhibition of recombinant human alpha GAL-A at 100 uM using p-nitrophenyl-glycopyranoside or 4-methylumbelliferyl-glycopyranoside as substrate by spectrophotometric method relative to control
T4 sequence (whole entry): T2 sequence (whole entry) with E279Q

[4] = system: T5, Alpha-galactosidase A (Homo sapiens), P06280 [R363C]; assay: as §1, with “R363C” for “Q279E”; type: cell-based
T5 sequence (whole entry): T2 sequence (whole entry) with E279Q, R363C

inhibition [1]: 36%
Activity [2]: Active
IC50 (Alpha-galactosidase A): 2100 nM
inhibition (Prunus dulcis): < 5%
inhibition [3]: 97%
Activity [4]: Active
SMILES: O=C(CCCCC1CCCCC1)NC[C@H]1N[C@H](CO)[C@H](O)[C@@H]1O
